Read-outs that look alike come from different tables or passages of the source.
Tests used:
[1] = Metabolic stability using human liver microsomes; assay type: in vitro ADME; conditions: 0.25 μM test compound, 2 mM NADPH, 37° C.
Experimental: Deuterated test compounds were supplied by Concert Pharmaceuticals.
A 10 μL aliquot of the 12.5 μM test compound was added to the microsomes and the mixture was pre-warmed for 10 minutes.
Data analysis was performed using Microsoft Excel Software.

[2] = Single Ascending Dose (SAD) study, pharmacokinetics in healthy volunteers; assay type: in vivo, human; conditions: fasted; for AUC(0-inf) / Cmax / half-life / AUC(0-t) / concentration at 24 h / Vd/F / Tmax: human, in vivo, oral; for AUC(0-inf) / Cmax / half-life / AUC(0-t) / concentration at 24 h / Vd/F / CL/F: arithmetic mean; for AUC(0-t): read-out: AUC0-24hr; for concentration at 24 h: read-out: C24hr; for Vd/F: read-out: Vz/F; for Tmax: median
[3] = Multiple Ascending Dose (MAD) study, pharmacokinetics in healthy volunteers; assay type: in vivo, human; conditions: for Cmax / half-life / AUC(0-t) / concentration at 12 h / Tmax / concentration at 24 h: human, in vivo, oral; for Cmax / half-life / AUC(0-t) / concentration at 12 h / concentration at 24 h: arithmetic mean; for concentration at 12 h: read-out: C12hr; for Tmax: median; for concentration at 24 h: read-out: C24hr
[4] = Combined SAD and MAD (Phase 1) studies, safety and tolerability; assay type: in vivo, human
Experimental: In the combined SAD and MAD studies, a total of 77 subjects were dosed (60 received CTP-543; 17 received placebo).

[5] = system: IL-6-stimulated phosphorylated STAT3 (pSTAT3); test: Pharmacodynamic analysis in MAD study: IL-6-stimulated pSTAT3; assay type: in vivo, human; conditions: all treatment groups
Experimental: (§1) Pharmacodynamic analyses were also performed during the MAD study of the Phase 1 trial to assess the inhibition of IL-6- and IFN-γ-mediated JAK/STAT signaling.

[6] = system: IFN-γ-mediated STAT1 signaling; test: Pharmacodynamic analysis in MAD study: IFN-γ-mediated STAT1 signaling; assay type: in vivo, human; conditions: disease-relevant immune cell types, all doses evaluated
Experimental: as §1

[7] = single dose 8 mg as phosphate salt, n = 6
[8] = single dose 16 mg as phosphate salt, n = 6
[9] = single dose 32 mg as phosphate salt, n = 6
[10] = single dose 48 mg as phosphate salt, n = 5

[2H]C1([2H])C([C@@H](CC#N)n2cc(-c3ncnc4[nH]ccc34)cn2)C([2H])([2H])C([2H])([2H])C1([2H])[2H] [Compound (I), (R)-3-(4-(7H-pyrrolo[2,3-d]pyrimidin-4-yl)-1H-pyrazol-1-yl)-3-(cyclopentyl-2,2,3,3,4,4,5,5-d8)propanenitrile]
t1/2 longer than the t1/2 of non-deuterated ruxolitinib [1]: about 75%
AUC(0-inf) [2, 7]: 589 ng·h/mL
Cmax [2, 7]: 118 ng/mL
half-life [2, 7]: 3.14 h
AUC(0-t) [2, 7]: 584 ng·h/mL
concentration at 24 h [2, 7]: 1.02 ng/mL
Vd/F [2, 7]: 64.1 L
Tmax [2, 7]: 1.25 h
AUC(0-inf) [2, 8]: 1350 ng·h/mL
Cmax [2, 8]: 260 ng/mL
half-life [2, 8]: 3.32 h
AUC(0-t) [2, 8]: 1330 ng·h/mL
concentration at 24 h [2, 8]: 2.77 ng/mL
Vd/F [2, 8]: 61 L
AUC(0-inf) [2, 9]: 2460 ng·h/mL
Cmax [2, 9]: 535 ng/mL
half-life [2, 9]: 3.52 h
AUC(0-t) [2, 9]: 2420 ng·h/mL
concentration at 24 h [2, 9]: 5.6 ng/mL
Vd/F [2, 9]: 68.4 L
Tmax [2, 9]: 1.25 h
AUC(0-inf) [2, 10]: 4160 ng·h/mL
Cmax [2, 10]: 853 ng/mL
half-life [2, 10]: 3.61 h
AUC(0-t) [2, 10]: 4100 ng·h/mL
concentration at 24 h [2, 10]: 9.26 ng/mL
Vd/F [2, 10]: 63.2 L
CL/F [2, 7]: 14.92 L/h
CL/F [2, 8]: 13.87 L/h
CL/F [2, 9]: 13.88 L/h
CL/F [2, 10]: 12.75 L/h
average systemic exposure versus published average reported exposure of 20 mg BID ruxolitinib ([3]; 16 mg BID of Compound (I)): comparable
Cmax ([3]; 8 mg, 8 mg BID, Day 1, n = 4): 160 ng/mL
half-life ([3]; 8 mg, 8 mg BID, Day 1, n = 4): 3.77 h
AUC(0-t) ([3]; 8 mg, 8 mg BID, Day 1, n = 4, read-out: AUCtau/AUC0-12hr): 703 ng·h/mL
concentration at 12 h ([3]; 8 mg, 8 mg BID, Day 1, n = 4): 13.7 ng/mL
Tmax ([3]; 8 mg, 8 mg BID, Day 1, n = 4): 1 h
Cmax ([3]; 8 mg, 8 mg BID, Day 7, n = 4): 183 ng/mL
half-life ([3]; 8 mg, 8 mg BID, Day 7, n = 4): 4.2 h
AUC(0-t) ([3]; 8 mg, 8 mg BID, Day 7, n = 4, read-out: AUCtau/AUC0-12hr): 844 ng·h/mL
concentration at 12 h ([3]; 8 mg, 8 mg BID, Day 7, n = 4): 13.2 ng/mL
Cmax ([3]; 8 mg, 8 mg QD, Day 1, n = 7): 156 ng/mL
half-life ([3]; 8 mg, 8 mg QD, Day 1, n = 7): 3.23 h
AUC(0-t) ([3]; 8 mg, 8 mg QD, Day 1, n = 7, read-out: AUCtau/AUC0-24hr): 704 ng·h/mL
concentration at 24 h ([3]; 8 mg, 8 mg QD, Day 1, n = 7): 0.86 ng/mL
Tmax ([3]; 8 mg, 8 mg QD, Day 1, n = 7): 1 h
Cmax ([3]; 8 mg, 8 mg QD, Day 7, n = 7): 151 ng/mL
half-life ([3]; 8 mg, 8 mg QD, Day 7, n = 7): 3.51 h
AUC(0-t) ([3]; 8 mg, 8 mg QD, Day 7, n = 7, read-out: AUCtau/AUC0-24hr): 668 ng·h/mL
concentration at 24 h ([3]; 8 mg, 8 mg QD, Day 7, n = 7): 1.01 ng/mL
Tmax ([3]; 8 mg, 8 mg QD, Day 7, n = 7): 1 h
Cmax ([3]; 16 mg, 16 mg BID, Day 1, n = 8): 290 ng/mL
half-life ([3]; 16 mg, 16 mg BID, Day 1, n = 8): 2.89 h
AUC(0-t) ([3]; 16 mg, 16 mg BID, Day 1, n = 8, read-out: AUCtau/AUC0-12hr): 1060 ng·h/mL
concentration at 12 h ([3]; 16 mg, 16 mg BID, Day 1, n = 8): 15.3 ng/mL
Tmax ([3]; 16 mg, 16 mg BID, Day 1, n = 8): 1 h
Cmax ([3]; 16 mg, 16 mg BID, Day 7, n = 8): 288 ng/mL
half-life ([3]; 16 mg, 16 mg BID, Day 7, n = 8): 3.53 h
AUC(0-t) ([3]; 16 mg, 16 mg BID, Day 7, n = 8, read-out: AUCtau/AUC0-12hr): 1130 ng·h/mL
concentration at 12 h ([3]; 16 mg, 16 mg BID, Day 7, n = 8): 16.5 ng/mL
Tmax ([3]; 16 mg, 16 mg BID, Day 7, n = 8): 0.75 h
Cmax ([3]; 24 mg, 24 mg QD, Day 1, n = 8): 384 ng/mL
half-life ([3]; 24 mg, 24 mg QD, Day 1, n = 8): 3.14 h
AUC(0-t) ([3]; 24 mg, 24 mg QD, Day 1, n = 8, read-out: AUCtau/AUC0-24hr): 1670 ng·h/mL
concentration at 24 h ([3]; 24 mg, 24 mg QD, Day 1, n = 8): 2.48 ng/mL
Tmax ([3]; 24 mg, 24 mg QD, Day 1, n = 8): 0.5 h
Cmax ([3]; 24 mg, 24 mg QD, Day 7, n = 8): 310 ng/mL
half-life ([3]; 24 mg, 24 mg QD, Day 7, n = 8): 3.5 h
AUC(0-t) ([3]; 24 mg, 24 mg QD, Day 7, n = 8, read-out: AUCtau/AUC0-24hr): 1530 ng·h/mL
concentration at 24 h ([3]; 24 mg, 24 mg QD, Day 7, n = 8): 3.39 ng/mL
Tmax ([3]; 24 mg, 24 mg QD, Day 7, n = 8): 1 h
Cmax ([3]; 32 mg, 32 mg QD, Day 1, n = 8): 509 ng/mL
half-life ([3]; 32 mg, 32 mg QD, Day 1, n = 8): 2.86 h
AUC(0-t) ([3]; 32 mg, 32 mg QD, Day 1, n = 8, read-out: AUCtau/AUC0-24hr): 2220 ng·h/mL
concentration at 24 h ([3]; 32 mg, 32 mg QD, Day 1, n = 8): 2.95 ng/mL
Tmax ([3]; 32 mg, 32 mg QD, Day 1, n = 8): 0.75 h
Cmax ([3]; 32 mg, 32 mg QD, Day 7, n = 8): 492 ng/mL
AUC(0-t) ([3]; 32 mg, 32 mg QD, Day 7, n = 8, read-out: AUCtau/AUC0-24hr): 2100 ng·h/mL
concentration at 24 h ([3]; 32 mg, 32 mg QD, Day 7, n = 8): 5.12 ng/mL
Tmax ([3]; 32 mg, 32 mg QD, Day 7, n = 8): 0.75 h
accumulation with repeated dosing ([3]; repeated dosing, seven consecutive days): did not accumulate
tolerability ([4]; Phase 1 study): generally well tolerated
cases of mild neutropenia ([4]; combined SAD and MAD studies): resolved or trended toward recovery after dosing completion
most common adverse event reported ([4]; combined SAD and MAD studies): headache
severe neutropenia (Grade 3 or 4) ([4]; combined SAD and MAD studies): not observed
withdrawal or dose modification related to CTP-543 ([4]; combined SAD and MAD studies): No withdrawal or dose modification
serious adverse events ([4]; combined SAD and MAD studies, 60 subjects received CTP-543): No serious adverse events were reported
absorption ([4]; combined SAD and MAD studies, oral): rapidly absorbed
IL-6-stimulated phosphorylated STAT3 (pSTAT3) ([5]; MAD study): dose-related reduction
pSTAT3 inhibition at 24 hours post-dose ([5]; 24 hours post-dose): returned to approximate baseline values
IFN-γ-mediated STAT1 signaling [6]: significantly inhibited

From patent publication US12076323B2, “Treatment of hair loss disorders with deuterated JAK inhibitors” (Sun Pharmaceutical Industries, Inc., priority 2016, dated 2024)
